According to patent publication US20120053076A1, “METHODS FOR IDENTIFICATION” (Cambridge Enterprise Limited, priority 2009, published 2012):
Like-named read-outs stand apart in the source and are kept apart here.

Columns and labels:
leukocytes = experiment: Chemokine-induced leukocyte migration (cells not specified); type: cell-based; conditions: description b37, b38
α2-adrenoreceptor [1] = experiment: Blood pressure; type: in vivo; conditions: description b37
5HT2a receptor = biological target: T1, 5HT2a receptor (Homo sapiens, UniProt P28223); experiment: [3H]-ketanserin binding to 5HT2a receptor membranes
T1 construct: purchased Sigma
Description: Methods: Radioligand binding experiments were performed with commercially available membrane preparations from cells expressing the 5HT2a receptor (Sigma) in accordance with the manufacturer's instructions. [^3H]-ketanserin was used as the radioligand probe (according to the method of Leysen et al. (1988) Pharmacol. Exp. Therap. 244:310-21) at 1 nM concentration (0.05 μCi per reaction). Experiments were performed in triplicate, and non-specific binding was determined in the presence of an excess (10 μM) of metergoline (a relatively non-specific ergot-derived serotonin receptor antagonist).

Jurkat T cells = experiment: SDF-1α induced migration of parental Jurkat T cells; type: cell-based, human
Description: Results: The level of the SDF-1α, receptor CXCR4 was similar on Jurkat-D3B and the parental Jurkat T cell line. Furthermore, the Jurkat-D3B cells responded to SDF-1α in a Transwell® chemotaxis assay (see Example 1 for the methodology employed) over a similar concentration range to the parental cell line.
Jurkat T cells and Jurkat-D3B cells were induced to migrate in response to 100 ng/ml SDF-1α (R&D systems; the concentration of SDF-1α which induced maximal cell migration in both lines). The BSCI BN83250 was then added at various concentrations between 0 nM and 1000 nM (each in triplicate) to both the upper and lower compartments (at the same concentration in each compartment, so as not to create a gradient of BSCI concentration). DMSO (1% final concentration) was used as the vehicle, and was present in all wells at equal concentration.

THP-1 cells = experiment: MCP-1 induced THP-1 cell migration, Transwell assay; type: cell-based, human; conditions: MCP-1 25 ng/ml
Description: Leukocyte migration was measured using the 96-well format micro Transwell® assay system from Neuroprobe (Gaithersburg, Md., USA). In principle, this assay consists of two chambers separated by a porous membrane. The chemoattractant is placed in the lower compartment and the cells are placed in the upper compartment.
The method was performed essentially as previously described (Reckless & Grainger (1999) Biochem. J. 340:803-11).
First, the cell suspension to be placed in the upper compartment was prepared. The THP-1 cells were pelleted by centrifugation (770×g; 4 mins) and washed with Geys Balanced Salt Solution with 1 mg/ml BSA (GBSS+BSA). This wash was then repeated, and the cells re-pelleted before being resuspended in a small volume of GBSS+BSA for counting, for example using a standard haemocytometer.
The volume of GBSS+BSA was then adjusted depending on the number of cells present so that the cells were at final density of 4.45×10^6 cells per ml of GBSS+BSA. This ensured that there were 100,000 THP-1 cells in each 25 μl of the solution to be placed in the upper chamber of the plate.
The suspension of THP-1 cells at 4.45×10^6 cells/ml was divided into three pots. […] To the second pot, the BSCI was added at the same concentration as in the first pot, but additionally the sstr2 antagonist was also added (for example BIM 23454 [Tulipano et al. (2002) 143:1218-24] or BIM 23627 were added at 66 nM final concentration from a stock solution in GBSS). To the third pot, GBSS+BSA plus vehicle as appropriate was added so that the volumes in three pots are equal, acting as a control.
Next, the chemoattractant solution to be placed in the lower compartment was prepared. MCP-1 was diluted in GBSS+BSA to give a final concentration of 25 ng/ml (after all additions). Note that, as recommended by Frow et al (Med. Res. Rev. 24:276-98) this is the concentration of MCP-1 which induces maximal migration in this system. This solution was divided into three pots, as for the cell suspension. To one pot, the BSCI was added to the same final concentration as was added to the cell suspension, in the second pot the BSCI and the sstr2 antagonist were both added at the same concentration as previously added to the cell suspension, while to the remaining pot GBSS+BSA plus vehicle as appropriate was added so that the volumes in the three pots were equal.
Once the chemoattractant solutions for the lower wells and cell solutions for the upper chambers were prepared, the migration chamber was assembled. 29 μl of the appropriate chemoattractant solution was placed into the lower well of the chamber. Assays were performed with at least triplicate determinations of each condition. Once all the lower chambers were filled, the porous membrane was applied to the chamber in accordance with the manufacturer's instructions. Finally, 25 μl of the appropriate cell solution was applied to each upper chamber. A plastic lid was placed over the entire apparatus to prevent evaporation.
The assembled chamber was incubated at 37° C., 5% CO2, for 2 hours.
At the end of the incubation, the liquid cell suspension was gently removed from the upper chamber, 20 μl of ice-cold 20 mM EDTA in PBS was added to the upper chamber, and the apparatus was incubated at 4° C. for 15 mins. This procedure caused any cells adhering to the underside of the membrane to fall into the lower chamber.
After this incubation the filter was carefully flushed with GBSS+BSA to wash off the EDTA, and then the filter was removed.
The number of cells migrated into the lower chamber under each condition can then be determined by a number of methods, including direct counting, labelling with fluorescent or radioactive markers or through the use of a vital dye. Typically, we utilised the vital dye MTT.

5HT2a = conditions: rodents, cited from earlier work
[2] = biological target: type 2 somatostatin receptor (sstr2), human (human) (UniProt P30874); experiment: cell-based or functional assay
α2-adrenoreceptor [3] = conditions: radioligand RS-79948-197; Grainger et al. (2005); read-out: Apparent affinity at α2-adrenoreceptor; cited from earlier work
α2-adrenoreceptor [4] = biological target: T2, α2-adrenoreceptor; experiment: [3H]-dihydroergocryptine binding to α2-adrenoreceptor membranes; conditions: 5 nM [3H]-DHE
T2 construct: other: 5 nM [3H]-DHE
Description: Methods: Radioligand binding experiments were performed with commercially available membrane preparations from cells expressing the α2-adrenoreceptor (Sigma) in accordance with the manufacturer's instructions. […] Experiments were performed in triplicate, and non-specific binding was determined in the presence of an excess (10 μM) of oxymetazoline.

platelets = experiment: ADP-mediated platelet activation/aggregation; type: cell-based

T1 sequence (P28223 whole entry): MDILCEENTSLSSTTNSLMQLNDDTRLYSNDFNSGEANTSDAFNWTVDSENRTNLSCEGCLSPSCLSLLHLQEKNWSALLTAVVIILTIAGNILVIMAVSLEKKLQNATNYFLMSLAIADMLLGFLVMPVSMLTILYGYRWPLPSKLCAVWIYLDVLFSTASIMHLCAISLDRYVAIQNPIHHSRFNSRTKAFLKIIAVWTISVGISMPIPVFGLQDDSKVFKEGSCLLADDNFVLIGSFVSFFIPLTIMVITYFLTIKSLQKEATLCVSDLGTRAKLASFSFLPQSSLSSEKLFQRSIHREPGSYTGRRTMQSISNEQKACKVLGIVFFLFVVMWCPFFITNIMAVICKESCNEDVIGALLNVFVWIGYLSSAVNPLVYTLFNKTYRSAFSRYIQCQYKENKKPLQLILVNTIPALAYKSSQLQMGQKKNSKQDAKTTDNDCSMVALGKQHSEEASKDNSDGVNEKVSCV
Sequence of type 2 somatostatin receptor (sstr2), human (human) (P30874 whole entry): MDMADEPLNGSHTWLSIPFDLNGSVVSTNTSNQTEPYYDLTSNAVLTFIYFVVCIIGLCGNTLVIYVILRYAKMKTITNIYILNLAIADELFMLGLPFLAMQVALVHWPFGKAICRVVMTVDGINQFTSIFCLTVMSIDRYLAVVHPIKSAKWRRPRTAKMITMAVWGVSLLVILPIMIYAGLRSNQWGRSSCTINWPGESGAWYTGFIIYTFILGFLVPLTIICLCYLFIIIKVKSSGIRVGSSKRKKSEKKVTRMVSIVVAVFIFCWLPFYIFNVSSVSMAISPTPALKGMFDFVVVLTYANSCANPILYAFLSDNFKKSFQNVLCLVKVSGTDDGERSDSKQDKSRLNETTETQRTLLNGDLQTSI

Which results are given for `COC(=O)[C@H]1[C@H]2C[C@@H]3c4[nH]c5cc(OC)ccc5c4CCN3C[C@H]2C[C@@H](OC(=O)c2cc(OC)c(OC)c(OC)c2)[C@@H]1OC` [reserpine]?
Effect on chemokine-induced leukocyte migration, in words (leukocytes): no effect on chemokine-induced leukocyte migration; Effect on blood pressure (α2-adrenoreceptor [1]): powerfully lowers blood pressure

For `CN1C[C@H](C(=O)O)C=C2c3cccc4[nH]cc(c34)C[C@H]21` [lysergic acid], which Ki (5HT2a receptor) is on record?
Its Ki is 49 ± 12 nM.

What about the “Inhibition of SDF-1α induced migration of Jurkat T cells, in words” value (Jurkat T cells) of the same molecule?
Its value is “neither agent inhibits”.

And the “Inhibition of MCP-1 induced THP-1 cell migration, in words” value (THP-1 cells)?
The value was “neither agent inhibits”.

With `COc1cc(Br)c(OC)c2c1[C@H](CN)C2` [TCB-2] as the molecule, how does the “Effect on chemokine-induced leukocyte migration, in words” value (leukocytes) read?
The value was “no effect on chemokine-induced leukocyte migration”.

What about the “Head twitching by classical 5HT2a agonists” value (5HT2a) of the same molecule?
Its value is “induce this classical effect”.

And the “Head twitching by classical 5HT2a agonists” value (5HT2a; listed as TCB2)?
The value was “powerfully induces head twitch”.

Which ED50 for inhibition of MCP-1 induced THP-1 cell migration [2] does the source give for cortistatin (peptide) here?
The ED50 for inhibition of MCP-1 induced THP-1 cell migration was 75 nM.

Which Ki (α2-adrenoreceptor [3]) does the source give for `NC(=O)C1CCC[C@H]2CN3CCc4c([nH]c5ccccc45)[C@@H]3C[C@H]12` (stereo partly shown) [Yohimban-16-amide] here?
Its Ki is 770 nM.

And the “Inhibition of SDF-1α induced migration of Jurkat T cells, in words” value (Jurkat T cells)?
Its value is “neither agent inhibits”.

What about the “Apparent Ka, inhibition of [3H]-DHE binding” value (α2-adrenoreceptor [4]) of the same molecule?
The value was 89 ± 13 nM.

What about the “Effect on ADP-mediated platelet activation/aggregation” value (platelets) of the same molecule?
Its value is “no effect on the activation of platelets in response to ADP”.
